Calls of active or inactive are those of the source.
What was measured:
Tumor necrosis factor = Tumor necrosis factor (Homo sapiens, UniProt P01375); assay: analog potency on TNFa NF-kB signaling – cell-based, revised, SAR follow-up (AID 2337); format: functional
Interleukin-8 = Interleukin-8 (Homo sapiens, UniProt P10145); assay: SAR analysis of tumor necrosis factor alpha (TNF-alpha) induced IL-8 secretion in MCF-7/NOD1 cells. [Related pubchem assays (depositor defined):AID1575, AID2250, AID2260]; format: functional, cell-based
Chain of Interleukin-8 (P10145 whole entry): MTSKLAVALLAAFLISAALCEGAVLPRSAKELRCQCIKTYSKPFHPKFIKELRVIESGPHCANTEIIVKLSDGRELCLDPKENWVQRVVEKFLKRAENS

HEK293 = assay: cells; conditions: Homo sapiens;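 further: cells exposed to compound for 14 hours overnight before viability readout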
Staphylococcus aureus = assay: Inhibitors of Bacterial Quorum Sensing Structure Activity Relationship (SAR) Analysis: Dose Response Assay. [Related pubchem assays: 700, 527 ]; format: functional, organism-based
[1] = target: T1, Neuropeptides B/W receptor type 1 (Homo sapiens, UniProt P48145); assay: Fluorescence-based dose response cell-based high throughput screening assay to identify antagonists of the G-protein coupled receptor 7 (GPR7). [Related pubchem assays: 1952 (Screening assay (GPR7 antagonists).), 1880 (Summary AID.)]; format: functional
T1 sequence (P48145 whole entry): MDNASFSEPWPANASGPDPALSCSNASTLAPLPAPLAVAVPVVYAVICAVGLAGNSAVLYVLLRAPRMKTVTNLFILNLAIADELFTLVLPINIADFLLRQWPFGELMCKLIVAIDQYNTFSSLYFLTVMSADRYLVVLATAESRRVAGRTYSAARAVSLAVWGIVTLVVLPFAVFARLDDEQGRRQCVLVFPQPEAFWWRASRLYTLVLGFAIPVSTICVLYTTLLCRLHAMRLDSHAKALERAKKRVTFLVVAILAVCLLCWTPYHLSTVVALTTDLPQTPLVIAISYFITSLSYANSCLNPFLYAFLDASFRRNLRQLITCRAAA

[2] = target: Melanin-concentrating hormone receptor 1 (Homo sapiens, UniProt Q99705); assay: Fluorescence-based counterscreen for antagonists of the G-protein coupled receptor 7 (GPR7): cell-based high throughput dose response assay to identify antagonists of the melanin-concentrating hormone receptor 1 (MCHR1).; format: functional
Chain of Melanin-concentrating hormone receptor 1 (Q99705 whole entry): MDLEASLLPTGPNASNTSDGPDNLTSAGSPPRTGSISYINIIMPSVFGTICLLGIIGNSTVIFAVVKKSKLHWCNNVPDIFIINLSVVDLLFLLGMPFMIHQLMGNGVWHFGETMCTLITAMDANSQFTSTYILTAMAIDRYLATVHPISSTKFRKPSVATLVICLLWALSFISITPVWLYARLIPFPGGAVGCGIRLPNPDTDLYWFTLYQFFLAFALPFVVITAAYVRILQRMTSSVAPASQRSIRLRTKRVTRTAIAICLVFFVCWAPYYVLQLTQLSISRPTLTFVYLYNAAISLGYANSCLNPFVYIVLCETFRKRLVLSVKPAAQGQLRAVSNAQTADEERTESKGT

Protein Rev = Protein Rev (Human immunodeficiency virus type 1 group M subtype B (isolate HXB2)(HIV-1), UniProt P04618); assay: blockers of HIV Rev/RRE RNA complex – biochemical, fluorescence polarization, HIV-1, dose response (AID 434976); parameters: species or system Human immunodeficiency virus 1
Chain of Protein Rev (P04618 whole entry): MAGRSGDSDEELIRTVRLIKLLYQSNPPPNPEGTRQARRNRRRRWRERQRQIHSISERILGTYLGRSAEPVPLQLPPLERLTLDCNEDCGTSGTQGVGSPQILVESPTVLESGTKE

[3] = target: Female germline-specific tumor suppressor gld-1 (Caenorhabditis elegans, UniProt Q17339); assay: blockers of GLD-1/TGE RNA complex formation – biochemical, fluorescence polarization, C. elegans, dose response (AID 2802);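 further: fluorescence polarization of labeled TGE RNA bound by purified gld-1 protein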
Chain of Female germline-specific tumor suppressor gld-1 (Q17339 whole entry): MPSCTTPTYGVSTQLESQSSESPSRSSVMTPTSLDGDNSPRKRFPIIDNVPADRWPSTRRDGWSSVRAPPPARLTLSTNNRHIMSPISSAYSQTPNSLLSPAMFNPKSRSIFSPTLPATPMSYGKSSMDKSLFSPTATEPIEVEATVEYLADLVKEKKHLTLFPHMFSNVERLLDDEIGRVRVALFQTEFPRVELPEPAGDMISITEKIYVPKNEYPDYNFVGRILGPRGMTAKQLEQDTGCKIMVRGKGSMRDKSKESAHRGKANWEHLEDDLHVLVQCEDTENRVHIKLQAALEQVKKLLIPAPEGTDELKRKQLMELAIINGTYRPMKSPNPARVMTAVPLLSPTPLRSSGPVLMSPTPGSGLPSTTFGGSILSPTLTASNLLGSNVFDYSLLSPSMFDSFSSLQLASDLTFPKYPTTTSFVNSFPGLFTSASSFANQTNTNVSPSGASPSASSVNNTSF

Chain of Tumor necrosis factor (P01375 whole entry): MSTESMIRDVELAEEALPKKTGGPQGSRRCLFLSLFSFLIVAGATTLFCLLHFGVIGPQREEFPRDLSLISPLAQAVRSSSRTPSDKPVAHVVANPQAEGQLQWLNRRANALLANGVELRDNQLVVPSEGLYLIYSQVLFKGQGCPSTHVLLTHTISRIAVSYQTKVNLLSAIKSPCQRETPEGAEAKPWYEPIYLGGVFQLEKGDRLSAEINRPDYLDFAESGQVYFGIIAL

With `Cc1ccc(S(=O)(=O)n2cnc3ccccc32)cc1` the IC50 (Tumor necrosis factor) was > 20 µM (inactive), the IC50 (Interleukin-8) was > 5 µM (inactive) and the IC50 (HEK293) was > 20 µM (inactive).

In the case of `O=C(O)c1ccccc1Nc1cccc2c1C(=O)c1ccccc1C2=O`, the IC50 (Staphylococcus aureus) is reported as 1.05 µM (active).

For `COC(=O)C(O)(c1ccc(N(C)C(=O)c2ccc(Cl)c(Cl)c2)cc1)C(F)(F)F` (stereo not drawn), the IC50 [1] was > 14.6 µM (not active) and the IC50 [2] was 15 µM (not active).

For `CC1CN(C2=Nc3cccc4cccc2c34)CC(C)O1` (stereo not drawn), the IC50 (Protein Rev) was 18.2 µM (not active) and the IC50 [3] was 9.4 µM (active).
